Here are results for twelve compounds from ChEMBL document CHEMBL5150012, “N-Substituted Valiolamine Derivatives as Potent Inhibitors of Endoplasmic Reticulum α-Glucosidases I and II with Antiviral Activity” (J Med Chem, 2021).

In one series the test system is SARS-CoV-2. Nature of the series: Antiviral activity against SARS-CoV-2 England/2/2022 assessed as reduction in viral infection. In kind it is functional, organism-based. As to conditions: Severe acute respiratory syndrome coronavirus 2, England/2/2022.
A short description of series [1]: Cytotoxicity against African green monkey Vero cells assessed as reduction in cell viability incubated for 3 to 5 days by Cell titer-glo luminescent assay. In kind it is toxicity, cell-based. As to conditions: chlorocebus sabaeus, time 3-5 day. On the technique in general: Cellular ATP, detected with luciferase, serves as a proxy for viable cell number.
For a further series, the system named is Dengue virus type 2. Description: Antiviral activity against DENV New Guinea C strain infected in African green monkey Vero cells assessed as reduction in viral infection measured after 5 days by plaque assay. As to conditions: 120 h.
The nature of series [2]: Inhibition of full length human recombinant Endoplasmic reticulum alpha-glucosidase 1 expressed in Escherichia coli using trisaccharide as substrate incubated for 60 mins.
Series [3] can be described thus: Inhibition of full length N-terminal his6-tagged mouse recombinant Endoplasmic reticulum alpha-glucosidase 2 expressed in DH10 Escherichia coli using Fluorogenic 1,4-methyl-lumbelliferon as substrate preincubated for 60 mins followed by substrate addition and measured after 30 mins.
The nature of series [4]: Selectivity index, ratio of CC50 for cytotoxicity against African green monkey Vero cells to IC50 for antiviral activity against DENV New Guinea C strain infected in African green monkey Vero cells. In kind it is toxicity, cell-based. As to conditions: read-out: Ratio CC50/IC50.

pIC50: −log10 of the molar value.

What is called pIC50 is the IC50 on a negative log10 scale, so that one unit is a factor of ten. Regarding `CCCCN1C[C@H](O)[C@@H](O)[C@H](O)[C@H]1CO`, the negative-log IC50 (pIC50) with SARS-CoV-2 is 4.37.

One may read the CC50 as the concentration that lowers cell viability or growth by half. Regarding `O=[N+]([O-])c1cc(-n2nccn2)ccc1NCCCCCCN[C@H]1C[C@](O)(CO)[C@@H](O)[C@H](O)[C@H]1O`, in series [1], the CC50 stood at 126 µM. Further, the pIC50 in the series on Dengue virus type 2 is 4.74; in series [2], 7.32; in the series with SARS-CoV-2, less than 4.00; in series [3], greater than 9.00. Besides, the selectivity ratio in series [4] came to 6.9.

Turning to `[N-]=[N+]=Nc1ccc(NCCCCCCN[C@H]2C[C@](O)(CO)[C@@H](O)[C@H](O)[C@H]2O)c([N+](=O)[O-])c1`, the CC50 in series [1] turned out to be 122 µM. Besides, the negative-log IC50 (pIC50) in the series with Dengue virus type 2 is 5.86; in series [2] it was 6.14; in the series on SARS-CoV-2 it was 4.91; in series [3], 7.47. For the same compound, in series [4], the selectivity ratio worked out at 88.

As for `COCCCCCCCCCN[C@H]1C[C@](O)(CO)[C@@H](O)[C@H](O)[C@H]1O`, the CC50 in series [1] came out at 1070 µM. Moreover, the pIC50 in the series with Dengue virus type 2 is 4.12; in series [2], 4.97; in the series on SARS-CoV-2, 3.57; in series [3], 6.31.

Consider `O=[N+]([O-])c1cc(-n2cnnn2)ccc1NCCCCCCN[C@H]1C[C@](O)(CO)[C@@H](O)[C@H](O)[C@H]1O`, for which the half-maximal cytotoxic concentration (CC50) in series [1] is 1360 µM. For the same compound, the pIC50 in the series on Dengue virus type 2 was less than 3.00; in series [2] it was 4.49; in series [3], 5.85.

Take `[N-]=[N+]=Nc1ccc(NCCOCCN[C@H]2C[C@](O)(CO)[C@@H](O)[C@H](O)[C@H]2O)c([N+](=O)[O-])c1`: the CC50 in series [1] amounted to 1750 µM. In addition, the values for the negative-log IC50 (pIC50) (with Dengue virus type 2; in series [2]; in series [3]) were 3.53, 5.44 and 4.43, respectively.

`[N-]=[N+]=Nc1ccc(NCCCCN[C@H]2C[C@](O)(CO)[C@@H](O)[C@H](O)[C@H]2O)c([N+](=O)[O-])c1`: in series [1], the CC50 was determined as 1020 µM. Further, the pIC50 with Dengue virus type 2 is 4.21; in series [2], 5.62; in the series with SARS-CoV-2, 5.02; in series [3], 6.00.

Regarding `CCCCN[C@H]1C[C@](O)(CO)[C@@H](O)[C@H](O)[C@H]1O`, the CC50 in series [1] is greater than 1000 µM. The pIC50 in the series with Dengue virus type 2 is 3.80; in series [2] it was 4.53.

For the compound `O=[N+]([O-])c1cc(-n2ccnn2)ccc1NCCCCCCN[C@H]1C[C@](O)(CO)[C@@H](O)[C@H](O)[C@H]1O`, in series [1], the CC50 is 1380 µM. For the same compound, the pIC50 with Dengue virus type 2 is 4.87; in series [2], 5.90; in the series with SARS-CoV-2, 3.53; in series [3], 7.81. Moreover, the selectivity ratio in series [4] came out at 102.

For the compound `O=[N+]([O-])c1cc(-c2ncccn2)ccc1NCCCCCCN[C@H]1C[C@](O)(CO)[C@@H](O)[C@H](O)[C@H]1O`, the CC50 in series [1] stood at 762 µM. The pIC50 with Dengue virus type 2 was 3.98; in series [2], 6.19; in the series with SARS-CoV-2, 4.15; in series [3], 8.96.

Turning to `[N-]=[N+]=Nc1ccc(NCCOC(=O)NCCN[C@H]2C[C@](O)(CO)[C@@H](O)[C@H](O)[C@H]2O)c([N+](=O)[O-])c1`, the CC50 in series [1] was greater than 1000 µM. Also, the results for the pIC50 (in the series with Dengue virus type 2; in series [2]; in the series with SARS-CoV-2) were less than 3.00, 5.95 and 4.27, respectively.

As for `N[C@H]1C[C@](O)(CO)[C@@H](O)[C@H](O)[C@H]1O` [VALIOLAMINE], in series [1], the CC50 came to 831 µM. In addition, the pIC50 with Dengue virus type 2 was less than 3.00; in series [2], 4.06; in the series on SARS-CoV-2, less than 3.00; in series [3], less than 4.00.
